The record followed here is BindingDB's records for doi:10.7270/Q2J67FB5 (Nmmlsc, 2007).

A value given as a limit tells only on which side of the number the result lay.

This assay addresses T1, fMet-Leu-Phe receptor (Homo sapiens, UniProt P21462).
T1 sequence (P21462 whole entry): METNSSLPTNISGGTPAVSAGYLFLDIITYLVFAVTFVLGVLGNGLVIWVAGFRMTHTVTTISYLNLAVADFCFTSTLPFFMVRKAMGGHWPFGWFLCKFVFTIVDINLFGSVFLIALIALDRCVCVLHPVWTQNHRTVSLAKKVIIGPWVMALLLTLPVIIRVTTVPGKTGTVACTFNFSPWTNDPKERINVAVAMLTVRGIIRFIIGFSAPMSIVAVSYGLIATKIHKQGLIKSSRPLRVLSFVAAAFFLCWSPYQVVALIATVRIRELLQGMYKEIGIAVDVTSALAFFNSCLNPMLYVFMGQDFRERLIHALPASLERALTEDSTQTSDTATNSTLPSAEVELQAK
Description: FPR ligands, dose response (AID 519).
For the compound `CCOc1ccc(C(=O)C2C(=O)C(=O)N(c3nc(C)c(C)s3)C2c2ccco2)cc1` (stereo not given) [(4Z)-1-(4,5-dimethyl-1,3-thiazol-2-yl)-4-[(4-ethoxyphenyl)-hydroxymethylidene]-5-(furan-2-yl)pyrrolidine-2,3-dione], half-maximal inhibition (IC50) was put at 57.7 µM.
The value for `CCOc1cccc(C(=O)C2C(=O)C(=O)N(Cc3ccco3)C2c2ccncc2)c1` (stereo not given) [(4Z)-1-(2-furfuryl)-4-[hydroxy(m-phenetyl)methylene]-5-(4-pyridyl)pyrrolidine-2,3-quinone] was more than 66.7 µM.
The same measure for `CC1=C(C(=O)OC(C)C)[C@]2(C(=O)N(CC(N)=O)c3ccccc32)C(C#N)C(=N)O1` (stereo partly drawn) [(3R)-6'-amino-1-(2-amino-2-keto-ethyl)-5'-cyano-2-keto-2'-methyl-spiro[indoline-3,4'-pyran]-3'-carboxylic acid isopropyl ester]: more than 66.7 µM.
The value for `COc1ccc(C(=O)C2C(=O)C(=O)N(CCN3CCOCC3)C2c2ccc(C)cc2)cc1` (stereo not given) [(4Z)-4-[(4-methoxyphenyl)-oxidanyl-methylidene]-5-(4-methylphenyl)-1-(2-morpholin-4-ylethyl)pyrrolidine-2,3-dione] was more than 66.7 µM.
On to `Cc1ccc(C2C(C(=O)c3cnn(-c4ccccc4)c3C)C(=O)C(=O)N2CCN2CCOCC2)o1` (stereo not given) [(4Z)-4-[hydroxy-(5-methyl-1-phenyl-4-pyrazolyl)methylidene]-5-(5-methyl-2-furanyl)-1-[2-(4-morpholinyl)ethyl]pyrrolidine-2,3-dione], for which the midpoint of inhibition, the IC50, lay at 23.2 µM. This counts as double-digit micromolar.
The same measure for `Cc1ccc(C)c(C(=O)C2C(=O)C(=O)N(CCCn3ccnc3)C2c2ccncc2)c1` (stereo not given) [(4E)-4-[(2,5-dimethylphenyl)-hydroxy-methylene]-1-(3-imidazol-1-ylpropyl)-5-(4-pyridyl)pyrrolidine-2,3-quinone]: more than 66.7 µM; for `COc1cc(-n2nc(C)c3c2OC(=N)C(C#N)C3c2ccccc2)c(Cl)c(Br)c1O` (stereo not given) [6-amino-1-(3-bromo-2-chloro-4-hydroxy-5-methoxyphenyl)-3-methyl-4-phenyl-1,4-dihydropyrano[2,3-c]pyrazole-5-carbonitrile]: 32.5 µM; for `COCc1cc(C2C(C(=O)c3ccco3)C(=O)C(=O)N2CCOCCO)ccc1O` (stereo not given) [3-(furan-2-carbonyl)-4-hydroxy-1-[2-(2-hydroxyethoxy)ethyl]-2-[4-hydroxy-3-(methoxymethyl)phenyl]-2H-pyrrol-5-one]: 29.7 µM.
With `Cc1ccc(C(=O)C2C(=O)C(=O)N(c3cc(C)on3)C2c2cccc(Br)c2)cc1` (stereo not given) [(4E)-5-(3-bromophenyl)-1-(5-methyl-1,2-oxazol-3-yl)-4-[(4-methylphenyl)-oxidanyl-methylidene]pyrrolidine-2,3-dione], the IC50 (in general, the concentration that gives 50% inhibition) is more than 66.7 µM.
`COC(=O)c1[nH]c(C)c(C(=O)C2C(=O)C(=O)N(CCN3CCOCC3)C2c2cccs2)c1C` (stereo not given): half-maximal inhibition (IC50) required 5 µM.
Turning to `O=C1C(=O)N(c2ncccn2)C(c2ccc(Cl)cc2)C1C(=O)c1ccco1` (stereo not given) [2-(4-chlorophenyl)-3-(furan-2-carbonyl)-4-hydroxy-1-pyrimidin-2-yl-2H-pyrrol-5-one], the IC50 is more than 66.7 µM.
The value for `COc1ccccc1C1C(C(=O)c2ccccc2)C(=O)C(=O)N1CC(C)C` (stereo not given) [(4Z)-4-[hydroxy(phenyl)methylene]-1-isobutyl-5-(2-methoxyphenyl)pyrrolidine-2,3-quinone] was 5.5 µM; that for `CCOc1ccc(C(=O)C2C(=O)C(=O)N(CC3CCCO3)C2c2ccc(C)o2)cc1` (stereo not given) [(4Z)-4-[(4-ethoxyphenyl)-hydroxymethylidene]-5-(5-methyl-2-furanyl)-1-(2-oxolanylmethyl)pyrrolidine-2,3-dione] was 21.1 µM.
The same measure for `CCCOc1ccc(C2C(C(=O)c3ccc(C)o3)C(=O)C(=O)N2Cc2cccnc2)cc1` (stereo not given) [3-(5-methylfuran-2-yl)carbonyl-4-oxidanyl-2-(4-propoxyphenyl)-1-(pyridin-3-ylmethyl)-2H-pyrrol-5-one]: 42.7 µM; for `CCCOc1ccc(C2C(C(=O)c3ccco3)C(=O)C(=O)N2CCCn2ccnc2)cc1` (stereo not given) [3-(furan-2-carbonyl)-4-hydroxy-1-(3-imidazol-1-ylpropyl)-2-(4-propoxyphenyl)-2H-pyrrol-5-one]: more than 66.7 µM.
